{
  "source": "patent US10308959B2",
  "about": "“Methods, systems, and compositions relating to MiRNA-146a” (Henry Ford Health System, priority 2013, dated 2019)",
  "test_system": "diabetic mice (db/db mice)",
  "assay": "Diabetic peripheral neuropathy in type II diabetic mice (db/db)",
  "type": "in vivo, mouse",
  "description": "DRG neurons play an important role in sensory conduction. Diabetic peripheral neuropathy is characterized by the loss and/or degeneration of neurons and the slowing of nerve conduction velocities. Using a mouse model of type II diabetes which develops severe peripheral neuropathy, we measured miR-146a expression in DRG neurons. […] FIG. 5H is quantitative data of caspase 3 positive cells. FIGS. 5I and J are neurological function measured by motor nerve conduction velocity (MCV, FIG. 5I) and sensory nerve conduction velocity (“SCV”, FIG. 5J). Red, blue, and black lines represent non-diabetic mice, diabetic mice treated with saline, and diabetic mice treated with sildenafil, respectively. *P<0.01 versus the nondiabetic group. #P<0.05 versus the diabetic group treated with saline. n=10/group. […] Elevation of miR-146a in DRG neurons by sildenafil rescued diabetes-induced DRG neuron death and improved neurological outcomes (FIG. 5).",
  "key": {"[1]": {"conditions": "diabetic mice treated with sildenafil"}},
  "data": [
    {"smiles": "CCCc1nn(C)c2c(=O)[nH]c(-c3cc(S(=O)(=O)N4CCN(C)CC4)ccc3OCC)nc12", "note": "[sildenafil]", "values": [
      {"measurement": "diabetes-induced DRG neuron death (caspase 3 positive cells)", "setting": "[1]", "value": "rescued"},
      {"measurement": "miR-146a in DRG neurons", "setting": "[1]", "value": "Elevation"},
      {"measurement": "neurological outcomes (MCV, SCV)", "setting": "diabetic mice treated with sildenafil vs saline", "value": "improved"}
    ]}
  ]
}
